In patent US20250230153A1, “2,3-DIHYDROBENZO[B][1,4]DIOXIN-6-YL CONTAINING COMPOUNDS USEFUL AS IMMUNOMODULATORS” (BRISTOL-MYERS SQUIBB COMPANY, priority 2021, published 2025):
Structures can show the parent of a compound that is named as a salt.

Target: PD-1/PD-L1 (Homo sapiens (Human), UniProt Q9NZQ7)
Experiment: PD-1/PD-L1 Homogenous Time-Resolved Fluorescence (HTRF) binding assay
Conditions: PD-1-Ig (20 nM final)/PD-L1-His (10 nM final) binding assay
Excerpt: The ability of the compounds of the invention to bind to PD-L1 was investigated using a PD-1/PD-L1 Homogenous Time-Resolved Fluorescence (HTRF) binding assay.
The interaction of PD-1 and PD-L1 can be assessed using soluble, purified preparations of the extracellular domains of the two proteins. The PD-1 and PD-L1 protein extracellular domains were expressed as fusion proteins with detection tags, for PD-1, the tag was the Fc portion of Immunoglobulin (PD-1-Ig) and for PD-L1 it was the 6 histidine motif (PD-L1-His). All binding studies were performed in an HTRF assay buffer consisting of dPBS supplemented with 0.1% […] bovine serum albumin and 0.05% (v/v) Tween-20. For the h/PD-L1-His binding assay, inhibitors were pre-incubated with PD-L1-His (10 nM final) for 15m in 4 μl of assay buffer, followed by addition of PD-1-Ig (20 nM final) in 1 μl of assay buffer and further incubation for 15 m. HTRF detection was achieved using europium crypate-labeled anti-Ig (1 nM final) and allophycocyanin (APC) labeled anti-His (20 nM final). Antibodies were diluted in HTRF detection buffer and 5 μl was dispensed on top of the binding reaction. The reaction mixture was allowed to equilibrate for 30 minutes and the resulting signal (665 nm/620 nm ratio) was obtained using an EnVision fluorometer. Additional binding assays were established between the human proteins PD-1-Ig/PD-L2-His (20 & 5 nM, respectively) and CD80-His/PD-L1-Ig (100 & 10 nM, respectively).
Recombinant Proteins: Human PD-1 (25-167) with a C-terminal human Fc domain of immunoglobulin G (Ig) epitope tag [hPD-1 (25-167)-3S-IG] and human PD-L1 (18-239) with a C-terminal His epitope tag [hPD-L1(18-239)-TVMV-His] were expressed in HEK293T cells and purified sequentially by ProteinA affinity chromatography and size exclusion chromatography. Human PD-L2-His and CD80-His was obtained through commercial sources.
Homogenous Time-Resolved Fluorescence (HTRF) Assays of Binding of Soluble PD-1 to Soluble PD-L1. Soluble PD-1 and soluble PD-L1 refers to proteins with carboxyl-end truncations that remove the transmembrane-spanning regions and are fused to heterologous sequences, specifically the Fc portion of the human immunoglobuling G sequence (Ig) or the hexahistidine epitope tag (His). All binding studies were performed in an HTRF assay buffer consisting of dPBS supplemented with 0.1% (w/v) bovine serum albumin and 0.05% (v/v) Tween-20. For the PD-1-Ig/PD-L1-His binding assay, inhibitors were pre-incubated with PD-L1-His (10 nM final) for 15m in 4 μl of assay buffer, followed by addition of PD-1-Ig (20 nM final) in 1 μl of assay buffer and further incubation for 15 m. PD-L1 fusion proteins from either human, cynomologous macaques, mouse, or other species were used. HTRF detection was achieved using europium crypate-labeled anti-Ig monoclonal antibody (1 nM final) and allophycocyanin (APC) labeled anti-His monoclonal antibody (20 nM final). Antibodies were diluted in HTRF detection buffer and 5 μl was dispensed on top of binding reaction. The reaction was allowed to equilibrate for 30 minutes and signal (665 nm/620 nm ratio) was obtained using an EnVision fluorometer. Additional binding assays were established between PD-1-Ig/PD-L2-His (20 and 5 nM, respectively), CD80-His/PD-L1-Ig (100 and 10 nM, respectively) and CD80-His/CTLA4-Ig (10 and 5 nM, respectively).
Recombinant Proteins. Carboxyl-truncated human PD-1 (amino acids 25-167) with a C-terminal human Ig epitope tag [hPD-1 (25-167)-3S-IG] and human PD-L1 (amino acids 18-239) with a C-terminal His epitope tag [hPD-L1(19-239)-tobacco vein mottling virus protease cleavage site (TVMV)-His] were expressed in HEK293T cells and purified sequentially by recombinant Protein A affinity chromatography and size exclusion chromatography. Human PD-L2-His (Sino Biologicals), CD80-His (Sino Biologicals), CTLA4-Ig (RnD Systems) were all obtained through commercial sources.

Chain of PD-1/PD-L1 (Q9NZQ7 18-239): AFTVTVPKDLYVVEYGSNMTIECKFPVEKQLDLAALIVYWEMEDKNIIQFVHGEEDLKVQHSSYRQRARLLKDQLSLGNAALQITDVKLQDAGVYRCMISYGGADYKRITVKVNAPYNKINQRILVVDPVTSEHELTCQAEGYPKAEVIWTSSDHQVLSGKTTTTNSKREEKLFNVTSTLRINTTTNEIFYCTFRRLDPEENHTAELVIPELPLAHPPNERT

| Structure (SMILES) | IC50 |
| --- | --- |
| COC(=O)CCNS(=O)(=O)c1cncc(COc2cc(OCc3cccc(-c4ccc5c(c4)OCCO5)c3C)c(Cl)cc2CN[C@@](C)(CO)C(=O)O)c1 [Example 1018, (S)-2-((5-Chloro-4-((3-(2,3-dihydrobenzo[b][1,4]dioxin-6-yl)-2-methylbenzyl)oxy)-2-((5-(N-(3-methoxy-3-oxopropyl)sulfamoyl)pyridin-3-yl)methoxy)benzyl)amino)-3-hydroxy-2-methylpropanoic acid] | 4 nM |
| Cc1c(COc2cc(OCc3cncc(S(=O)(=O)NCCC(=O)O)c3)c(CN[C@@](C)(CO)C(=O)O)cc2Cl)cccc1-c1ccc2c(c1)OCCO2 [Example 1020, (S)-2-((2-((5-(N-(2-Carboxyethyl)sulfamoyl)pyridin-3-yl)methoxy)-5-chloro-4-((3-(2,3-dihydrobenzo[b]1[1,4]dioxin-6-yl)-2-methylbenzyl)oxy)benzyl)amino)-3-hydroxy-2-methylpropanoic acid] | 3.1 nM |
| Cc1c(COc2cc(OCCCCN3CC[C@@H](O)C3)c(CN3CCCC[C@H]3C(=O)O)cc2Cl)cccc1-c1ccc2c(c1)OCCO2 [Example 1025, (S)-1-(5-Chloro-4-((3-(2,3-dihydrobenzo[b][1,4]dioxin-6-yl)-2-methylbenzyl)oxy)-2-(4-((R)-3-hydroxypyrrolidin-1-yl)butoxy)benzyl)piperidine-2-carboxylic acid] | 15.6 nM |
| Cc1c(COc2cc(OCCCCN3CC[C@@H](O)C3)c(CN[C@](C)(CO)C(=O)O)cc2Cl)cccc1-c1ccc2c(c1)OCCO2 [Example 1026, (R)-2-((5-Chloro-4-((3-(2,3-dihydrobenzo[b][1,4]dioxin-6-yl)-2-methylbenzyl)oxy)-2-(4-((R)-3-hydroxypyrrolidin-1-yl)butoxy)benzyl)amino)-3-hydroxy-2-methylpropanoic acid] | 2.2 nM |
| Cc1c(COc2cc(OCCCCN3CC[C@@H](O)C3)c(CNC(C)(CO)CO)cc2Cl)cccc1-c1ccc2c(c1)OCCO2 [Example 1027, (R)-2-((5-Chloro-4-((3-(2,3-dihydrobenzo[b][1,4]dioxin-6-yl)-2-methylbenzyl)oxy)-2-(4-(3-hydroxypyrrolidin-1-yl)butoxy)benzyl)amino)-2-methylpropane-1,3-diol] | 4.1 nM |
| Cc1c(COc2cc(OCCCC(F)(F)F)c(CN3CCCC[C@H]3C(=O)O)cc2Cl)cccc1-c1ccc2c(c1)OCCO2 [Example 1028, (S)-1-(5-Chloro-4-((3-(2,3-dihydrobenzo[b][1,4]dioxin-6-yl)-2-methylbenzyl)oxy)-2-(4,4,4-trifluorobutoxy)benzyl)piperidine-2-carboxylic acid] | 1.8 nM |
| Cc1c(COc2cc(OCCCC(F)(F)F)c(CN[C@](C)(CO)C(=O)O)cc2Cl)cccc1-c1ccc2c(c1)OCCO2 [Example 1029, (R)-2-((5-Chloro-4-((3-(2,3-dihydrobenzo[b][1,4]dioxin-6-yl)-2-methylbenzyl)oxy)-2-(4,4,4-trifluorobutoxy)benzyl)amino)-3-hydroxy-2-methylpropanoic acid] | 1.2 nM |
| Cc1c(COc2cc(OCCCC(F)(F)F)c(CNC(C)(CO)CO)cc2Cl)cccc1-c1ccc2c(c1)OCCO2 [Example 1030, 2-((5-Chloro-4-((3-(2,3-dihydrobenzo[b][1,4]dioxin-6-yl)-2-methylbenzyl)oxy)-2-(4,4,4-trifluorobutoxy)benzyl)amino)-2-methylpropane-1,3-diol] | 6.5 nM |

More lines, now with the values ahead:

| IC50 | Structure (SMILES) |
| --- | --- |
| 20.2 nM | Cc1c(COc2cc(OCc3cccc(CN)c3)c(CN3CCCC[C@H]3C(=O)O)cc2Cl)cccc1-c1ccc2c(c1)OCCO2 [Example 1017, (S)-1-(2-((3-(Aminomethyl)benzyl)oxy)-5-chloro-4-((3-(2,3-dihydrobenzo[b][1,4]dioxin-6-yl)-2-methylbenzyl)oxy)benzyl)piperidine-2-carboxylic acid, bis-trifluoroacetic acid salt] |
| 4.1 nM | Cc1c(COc2cc(OCc3cncc(S(N)(=O)=O)c3)c(CN[C@@](C)(CO)C(=O)O)cc2Cl)cccc1-c1ccc2c(c1)OCCO2 [Example 1019, (S)-2-((5-Chloro-4-((3-(2,3-dihydrobenzo[b][1,4]dioxin-6-yl)-2-methylbenzyl)oxy)-2-((5-sulfamoylpyridin-3-yl)methoxy)benzyl)amino)-3-hydroxy-2-methylpropanoic acid] |
| 5.7 nM | Cc1c(COc2cc(OCc3cncc(C(=O)NS(C)(=O)=O)c3)c(CN3CCCC[C@H]3C(=O)O)cc2Cl)cccc1-c1ccc2c(c1)OCCO2 [Example 1021, (S)-1-(5-Chloro-4-((3-(2,3-dihydrobenzo[b][1,4]dioxin-6-yl)-2-methylbenzyl)oxy)-2-((5-((methylsulfonyl)carbamoyl)pyridin-3-yl)methoxy)benzyl)piperidine-2-carboxylic acid] |
| 2.7 nM | Cc1c(COc2cc(OCCN3CC[C@@H](O)C3)c(CN[C@](C)(CO)C(=O)O)cc2Cl)cccc1-c1ccc2c(c1)OCCO2 [Example 1022, (R)-2-((5-Chloro-4-((3-(2,3-dihydrobenzo[b][1,4]dioxin-6-yl)-2-methylbenzyl)oxy)-2-(2-((R)-3-hydroxypyrrolidin-1-yl)ethoxy)benzyl)amino)-3-hydroxy-2-methylpropanoic acid] |
| 4.6 nM | Cc1c(COc2cc(OCCN3CC[C@@H](O)C3)c(CN3CCCC[C@H]3C(=O)O)cc2Cl)cccc1-c1ccc2c(c1)OCCO2 [Example 1023, (S)-1-(5-Chloro-4-((3-(2,3-dihydrobenzo[b][1,4]dioxin-6-yl)-2-methylbenzyl)oxy)-2-(2-((R)-3-hydroxypyrrolidin-1-yl)ethoxy)benzyl)piperidine-2-carboxylic acid] |
| 0.5 nM | Cc1c(COc2cc(OCCN3CC[C@@H](O)C3)c(CNC(C)(CO)CO)cc2Cl)cccc1-c1ccc2c(c1)OCCO2 [Example 1024, (R)-2-((5-Chloro-4-((3-(2,3-dihydrobenzo[b][1,4]dioxin-6-yl)-2-methylbenzyl)oxy)-2-(2-(3-hydroxypyrrolidin-1-yl)ethoxy)benzyl)amino)-2-methylpropane-1,3-diol] |
| 14.7 nM | Cc1c(COc2cc(OC[C@H](C)CO)c(CN3CCCC[C@H]3C(=O)O)cc2Cl)cccc1-c1ccc2c(c1)OCCO2 [Example 1031, (S)-1-(5-Chloro-4-((3-(2,3-dihydrobenzo[b][1,4]dioxin-6-yl)-2-methylbenzyl)oxy)-2-((R)-3-hydroxy-2-methylpropoxy)benzyl)piperidine-2-carboxylic acid] |
| 4.4 nM | Cc1c(COc2cc(OC[C@H](C)CO)c(CN[C@](C)(CO)C(=O)O)cc2Cl)cccc1-c1ccc2c(c1)OCCO2 [Example 1032, (R)-2-((5-Chloro-4-((3-(2,3-dihydrobenzo[b][1,4]dioxin-6-yl)-2-methylbenzyl)oxy)-2-((R)-3-hydroxy-2-methylpropoxy)benzyl)amino)-3-hydroxy-2-methylpropanoic acid] |
| 3.9 nM | Cc1c(COc2cc(OC[C@H](C)CO)c(CNC(C)(CO)CO)cc2Cl)cccc1-c1ccc2c(c1)OCCO2 [Example 1033, (R)-2-((5-Chloro-4-((3-(2,3-dihydrobenzo[b][1,4]dioxin-6-yl)-2-methylbenzyl)oxy)-2-(3-hydroxy-2-methylpropoxy)benzyl)amino)-2-methylpropane-1,3-diol] |
| 3.9 nM | Cc1c(COc2cc(OC[C@@H](C)CO)c(CN3CCCC[C@H]3C(=O)O)cc2Cl)cccc1-c1ccc2c(c1)OCCO2 [Example 1034, (S)-1-(5-chloro-4-((3-(2,3-dihydrobenzo[b][1,4]dioxin-6-yl)-2-methylbenzyl)oxy)-2-((S)-3-hydroxy-2-methylpropoxy)benzyl)piperidine-2-carboxylic acid] |
